Holding throughout (assay): NCI-60 cell line screen, 48 h
Assay [1] concerns SR leukemia.
The subject of assay [2] is HCC-2998 colon.
Assay [3] has as its system OVCAR-4 ovarian.
The test system of assay [4] is HS 578T breast.
The test system of assay [5] is SK-MEL-5 melanoma.
For assay [6], the system named is SF-539 CNS.
Assay [7] has as its system NCI-H226 lung.
Assay [8] deals with RXF 393 renal.
The test system of assay [9] is OVCAR-3 ovarian.
The test system of assay [10] is ACHN renal.

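1) Cells in 96-well plates. 2) Compound, 48 h, 5 concentrations. 3) Linear interpolation between surrounding doses. 4) Unreached endpoint = highest concentration. TGI: concentration producing complete growth inhibition.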 Where only a bound is given, the exact number is not on record here.

The values below come from PubChem BioAssay (NCI).

Take `CCOC(=O)c1c(N2CCCC2)[nH]c(=O)c(C(c2ccc(OC)cc2)c2c(O)c(C(=O)OCC)c(N3CCCC3)[nH]c2=O)c1O`: the TGI in [1], in assay [2], in [3], in assay [4], in assay [5] and in assay [6] was > 100 µM throughout. Besides, the TGI in [7], in assay [8], in assay [9] and in assay [10] was > 100 µM each time.

Turning to `COC(=O)/C=C(\C)CC/C=C(\C)CCC1OC1(C)C` (stereo not given), the TGI in [1] came to 23.4 µM; in assay [2], 22.8 µM; in [3], 22.2 µM; in assay [4], 35.2 µM; in assay [5] it was 22.4 µM; in [6], 24.1 µM. In addition, the TGI in assay [7] is 24.8 µM; in assay [8], 23.8 µM; in [9] it was 21.8 µM; in [10], 23.3 µM.

As for `COC(=O)CNC(=O)C(CSC(=O)OCC1c2ccccc2-c2ccccc21)NC(=O)CCC(NC(=O)OCC1c2ccccc2-c2ccccc21)C(=O)OC` (stereo not given), the TGI is 37.5 µM in assay [1]; 40.7 µM in assay [2]; 33.4 µM in [3]; > 100 µM in assay [4]; > 100 µM in [5]; 37.8 µM in [6]. In addition, the TGI is > 100 µM in assay [7], 32 µM in [8], 32 µM in assay [9] and > 100 µM in [10].

For the compound `COc1ccc2ccc3oc(=O)c(C)cc3c2c1`, the TGI in assay [1], in assay [2], in [3], in assay [4], in assay [5] and in assay [6] was > 100 µM each time. The TGI in [7], in assay [8], in [9] and in assay [10] was > 100 µM throughout.

With `O=c1ccc2ccc(S)cc2o1`, the TGI in [1], in [2], in assay [3], in assay [4], in [5] and in assay [6] was > 100 µM throughout. For the same compound, the TGI in assay [7], in assay [8], in assay [9] and in assay [10] was > 100 µM in each case.

As for `CC(C)C(Br)CCC1=CCC(Br)(Br)C1` (stereo not given), the TGI in assay [1] was > 100 µM; in assay [2], 28.1 µM; in assay [3], 24.2 µM; in assay [4], 47.4 µM; in assay [5], 18.3 µM; in assay [6], 33.7 µM. In addition, the TGI was 26.9 µM in [7], 29 µM in [8], 25.7 µM in assay [9] and 30.6 µM in assay [10].

As for `CC1(C)CC(=O)C2=C(C1)C(c1ccccc1Cl)C1C(=O)CC(C)(C)CC1(O)O2` (stereo not given), the TGI in assay [1], in assay [2], in assay [3], in [4], in [5] and in [6] was > 100 µM each time. Besides, the TGI in assay [7], in assay [8], in assay [9] and in assay [10] was > 100 µM each time.

On to `CN(C)CCN(c1ccccn1)c1ccccn1`, for which the TGI in [1], in [2], in assay [3], in [4], in assay [5] and in [6] was > 100 µM throughout. Besides, the TGI in [7], in assay [8], in assay [9] and in [10] was > 100 µM in each case.
